Measurements: ChEMBL document CHEMBL1201862, “PubChem BioAssay data set” (2004)
Structures can show the parent of a compound that is named as a salt. Calls of active or inactive are those of the source.

Tests used:
[1] = Dd2 parasite growth inhibition in erythrocytes – SYBR Green, dry powder samples, set 9, dose response (AID 1159568); assay type: functional, cell-based
[2] = CellTiter-Glo luminescence survival assay, SW480 colon tumor line, concentration-response curve, half-maximal inhibitory concentration (AID 1117338); assay type: functional
[3] = RKO cell viability reduction, dose response, CellTiter-Glo luminescence (AID 1117322); assay type: functional
[4] = SNU-C1 cell viability reduction, dose response, CellTiter-Glo luminescence (AID 1117323); assay type: functional, cell-based
[5] = cytotoxicity toward Colo320 cells – cell-based, CellTiter-Glo luminescence, IC50, dose response (AID 1117334); assay type: functional; conditions: COLO 320
[6] = cytotoxicity toward HT-29 cells – cell-based, CellTiter-Glo luminescence, IC50, dose response (AID 1117330); assay type: functional
[7] = Reduced DLD-1 viability, concentration-response, CellTiter-Glo luminescence (AID 1117352); assay type: functional
[8] = HCT116 cell viability decrease, GSK3B pretreatment – CellTiter-Glo, IC50, dose response (AID 1117339); assay type: functional; conditions: HCT-116
Paired box protein Pax-8 = Paired box protein Pax-8 (Homo sapiens, UniProt Q06710); assay: PAX8 transcriptional activity inhibition in RMG-I – RMG-I cells, luciferase, cherry-pick, dose response (AID 687027); assay type: functional, cell-based;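 note: luciferase reporter driven by Pax8 target thyroperoxidase promoter measured by SteadyGlo luminescence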
[9] = OVCAR-3 cell viability loss – plate reader, dry powder samples, PAX8 inhibitor project, dose response (AID 743044); assay type: functional, cell-based
[10] = OVCAR8 cell viability loss – plate reader, dry powder samples, PAX8 project, dose response (AID 743197); assay type: functional, cell-based; conditions: OVCAR-8
[11] = growth inhibition of yeast DHODH-expressing 3D7 parasites – SYBR Green, dry powder samples, dose response (AID 1159570); assay type: functional, cell-based;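 note: parasite growth measured after 72 hours of compound exposure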
[12] = toxicity to human HepG2 hepatoma cells – cell-based, plate reader, dry powder samples, cytotoxicity control, dose response (AID 1159569); assay type: functional;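 note: inhibitor potency with signal falling toward the positive control level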
[13] = P. falciparum Dd2 growth inhibitors, dose response, SYBR Green, cherry-picked samples (AID 1159567); assay type: functional, cell-based
[14] = Dd2 malaria parasite growth inhibition potency – SYBR Green, dry powder samples, dose response (AID 1159566); assay type: functional, cell-based;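 note: potency for growth inhibition with lower SYBR green DNA signal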
[15] = toxicity to human hepatoma HepG2 cells – cell-based, cherry-picked samples, cytotoxicity control, dose response (AID 1159577); assay type: functional
[16] = growth inhibition of PfATP4-mutant resistant parasites – NITD609-resistant line, SYBR Green, dry powder, dose response (AID 1159571); assay type: functional, cell-based;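 note: parasites synchronized at ring stage by sorbitol before testing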
[17] = target: Mitogen-activated protein kinase 10 (Homo sapiens, UniProt P53779); assay: Dose response biochemical screening assay for inhibitors of c-Jun N-Terminal Kinase 3 (JNK3). [Related pubchem assays: 746 ]
[18] = A549 cell cytotoxicity, dose response, cytotoxicity control, plate reader, cherry-pick, antagonist series (AID 743412); assay type: functional, cell-based
[19] = toxicity toward HepG2 liver cells – cell-based, plate reader, cherry-pick, antagonist series, cytotoxicity control, dose response (AID 743416); assay type: functional
[20] = blockers of bursicon-stimulated LGR2 cAMP reporter – cell-based, HEK293, CRE-luciferase reporter, cherry pick, set 2, dose response (AID 743343); assay type: functional;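 note: transfected cells were stimulated with diluted bursicon conditioned medium after compound addition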
[21] = blockade of melanocortin 4 receptor signaling – cell-based, plate reader, cherry pick, counter-screen for LGR2 antagonist project, dose response (AID 743444); assay type: functional;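 note: transfected HEK 293 cells stimulated with alpha-MSH peptide; potency of inhibitors of the alpha-MSH evoked signal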
[22] = glucagon-like peptide-1 release potency in STC-1, concentration-response, half-maximal inhibitory concentration in the STC-1 line (AID 1117345); assay type: functional, cell-based
[23] = Potency on glucagon-like peptide 1 release, dose-response in NCI-H716 cell line, half maximal inhibitory concentration (AID 1117344); assay type: functional, cell-based
[24] = cytotoxicity toward HCT116 cells – cell-based, CellTiter-Glo luminescence, IC50, dose response (AID 1117332); assay type: functional; conditions: HCT-116

Mitogen-activated protein kinase 10, sequence (P53779 whole entry): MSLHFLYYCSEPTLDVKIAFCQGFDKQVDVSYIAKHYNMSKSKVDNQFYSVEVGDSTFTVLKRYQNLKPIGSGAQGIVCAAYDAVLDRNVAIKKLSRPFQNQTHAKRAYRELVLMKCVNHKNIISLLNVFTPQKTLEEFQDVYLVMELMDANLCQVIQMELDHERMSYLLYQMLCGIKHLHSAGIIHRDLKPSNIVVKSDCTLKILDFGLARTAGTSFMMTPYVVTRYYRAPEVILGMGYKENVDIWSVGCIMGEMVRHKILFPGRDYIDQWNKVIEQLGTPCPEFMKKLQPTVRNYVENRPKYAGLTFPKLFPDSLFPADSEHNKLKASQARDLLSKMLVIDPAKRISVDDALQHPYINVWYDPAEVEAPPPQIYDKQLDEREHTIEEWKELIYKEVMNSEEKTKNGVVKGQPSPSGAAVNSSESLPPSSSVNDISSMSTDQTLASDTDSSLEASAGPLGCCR
Paired box protein Pax-8, sequence (Q06710 whole entry): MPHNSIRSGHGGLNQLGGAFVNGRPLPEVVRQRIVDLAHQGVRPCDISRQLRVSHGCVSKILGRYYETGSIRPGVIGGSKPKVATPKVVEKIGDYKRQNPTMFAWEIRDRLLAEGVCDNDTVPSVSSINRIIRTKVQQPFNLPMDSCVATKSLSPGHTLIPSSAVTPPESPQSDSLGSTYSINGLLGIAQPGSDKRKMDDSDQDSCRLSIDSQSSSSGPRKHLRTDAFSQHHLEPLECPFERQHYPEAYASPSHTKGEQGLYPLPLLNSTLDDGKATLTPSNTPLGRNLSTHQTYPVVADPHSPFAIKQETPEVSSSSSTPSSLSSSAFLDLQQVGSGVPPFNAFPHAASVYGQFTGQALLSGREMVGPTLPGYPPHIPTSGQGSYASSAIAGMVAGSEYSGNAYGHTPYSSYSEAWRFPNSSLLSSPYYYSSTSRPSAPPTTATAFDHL

**Q.** For `Cc1ccc(S(=O)(=O)N(C)C[C@H]2Oc3cc(C#CC4CCCC4)ccc3S(=O)(=O)N([C@@H](C)CO)C[C@H]2C)cc1`, which AC50 [1] is on record?
**A.** 3.42 µM (active)

**Q.** With `O=C(NC1CCN(CCc2c[nH]c3ccccc23)CC1)c1ccccc1` [INDORAMIN HYDROCHLORIDE] as the compound, how does the IC50 [2] read?
**A.** > 20 µM (inactive)

**Q.** What about the IC50 [3] of the same compound?
**A.** > 20 µM (inactive)

**Q.** What about the IC50 [4] of the same compound?
**A.** > 20 µM (inactive)

**Q.** What about the IC50 [5] of the same compound?
**A.** > 20 µM (inactive)

**Q.** What about the IC50 [6] of the same compound?
**A.** > 20 µM (inactive)

**Q.** And the IC50 [7]?
**A.** > 20 µM (inactive)

**Q.** What about the IC50 [8] of the same compound?
**A.** > 20 µM (inactive)

**Q.** For `C[C@@H]1CN([C@@H](C)CO)C(=O)Cc2cc(NC(=O)Cc3cn(C)c4ccccc34)ccc2O[C@H]1CN(C)Cc1ccc(Oc2ccccc2)cc1`, which AC50 (Paired box protein Pax-8) is on record?
**A.** 7.45 µM (active)

**Q.** And the AC50 [9]?
**A.** 22.6 µM (active)

**Q.** What about the AC50 [10] of the same compound?
**A.** 43.1 µM (active)

**Q.** And the AC50 [11]?
**A.** 1.6 µM (active)

**Q.** And the AC50 [12]?
**A.** 22.2 µM (active)

**Q.** And the AC50 [13]?
**A.** 1.34 µM (active)

**Q.** What about the AC50 [14] of the same compound?
**A.** 1.05 µM (active)

**Q.** What about the AC50 [15] of the same compound?
**A.** > 39 µM (inactive)

**Q.** And the AC50 [16]?
**A.** 1.65 µM (active)

**Q.** With `COc1ccc(CNC(=O)c2cnn3c(C(F)F)cc(C)nc23)cc1OC` as the compound, how does the IC50 [17] read?
**A.** > 31 µM (not active)

**Q.** What does the source list for `C[C@@H]1CN([C@@H](C)CO)C(=O)c2cccc(NC(=O)c3ccc(-c4nccs4)cc3)c2O[C@@H]1CN(C)C(=O)Nc1ccc(C(F)(F)F)cc1`?
**A.** AC50 [18]: 25.5 µM (active); AC50 [19]: 33.2 µM (active); AC50 [20]: 43.7 µM (active); AC50 [21]: 54.1 µM (active); AC50 [1]: 2.16 µM (active)

**Q.** Which IC50 [17] does the source give for `Cc1ccccc1Nc1nn2c(=O)c3ccccc3nc2s1` here?
**A.** 39.3 µM (not active)

**Q.** With `C#CC1(O)CC[C@H]2[C@@H]3CCC4=CCCC[C@@H]4[C@H]3CC[C@@]21C` (some centres undefined) as the compound, how does the IC50 [22] read?
**A.** > 40 µM (inactive)

**Q.** And the IC50 [23]?
**A.** 27.5 µM (inactive)

**Q.** Which results are given for `CN1CCN(c2cc3c(nn2)Oc2ccccc2N3C)CC1` [PIPOFEZINE]?
**A.** IC50 [2]: > 20 µM (inactive); IC50 [3]: > 20 µM (inactive); IC50 [24]: > 20 µM (inactive); IC50 [4]: > 20 µM (inactive); IC50 [5]: > 20 µM (inactive); IC50 [6]: > 20 µM (inactive); IC50 [7]: > 20 µM (inactive); IC50 [8]: > 20 µM (inactive)
